{"source": "paper PMC6541551", "about": "(Journal of psychopharmacology (Oxford, England), 2018)", "assay": "Screening of", "assay_type": "in vivo, CD-1 mice", "conditions": "male mice, 50 mg/kg, three timepoints"}
{"smiles": "CCC(=O)O[C@@H]1CCC[C@@](N)(c2ccccc2Cl)C1=O", "note": "[Compound 2b]", "values": [{"measurement": "Relative BA (plasma AUClast p.o. / i.p.)", "value": 30, "unit": "%"}]}
{"smiles": "CCCCC(=O)O[C@@H]1CCC[C@@](N)(c2ccccc2Cl)C1=O", "note": "[Compound 2c]", "values": [{"measurement": "Relative BA (plasma AUClast p.o. / i.p.)", "value": 26, "unit": "%"}]}
{"smiles": "CCCCCCCC(=O)O[C@@H]1CCC[C@@](N)(c2ccccc2Cl)C1=O", "note": "[Compound 2d]", "values": [{"measurement": "Relative BA (plasma AUClast p.o. / i.p.)", "value": 10, "unit": "%"}, {"measurement": "AUC (systemic exposure to (2R,6R)-HNK)", "setting": "p.o.", "value": 0.782, "unit": "µg/mL/h"}]}
{"smiles": "N[C@@]1(c2ccccc2Cl)CCC[C@@H](OC(=O)c2ccccc2)C1=O", "note": "[Compound 2e]", "values": [{"measurement": "Relative BA (plasma AUClast p.o. / i.p.)", "value": 44, "unit": "%"}]}
